Measured values reported in paper PMC9127186, “Molecular Basis Underlying Hepatobiliary and Renal Excretion of Phenolic Acids of Salvia miltiorrhiza Roots (Danshen)” (Frontiers in Pharmacology, 2022).

Legend:
[1] = target: T1, rat Oat1 (Rattus norvegicus, UniProt O35956); assay: Cellular transport assay, HEK-293 cells expressing rat Oat1; conditions: for TransportTC/TransportMC ratio (net transport ratio): 10 min; for K m: rat renal basolateral uptake Oat1, 5 min incubation, concentrations in Table 1
T1 sequence (O35956 1-551): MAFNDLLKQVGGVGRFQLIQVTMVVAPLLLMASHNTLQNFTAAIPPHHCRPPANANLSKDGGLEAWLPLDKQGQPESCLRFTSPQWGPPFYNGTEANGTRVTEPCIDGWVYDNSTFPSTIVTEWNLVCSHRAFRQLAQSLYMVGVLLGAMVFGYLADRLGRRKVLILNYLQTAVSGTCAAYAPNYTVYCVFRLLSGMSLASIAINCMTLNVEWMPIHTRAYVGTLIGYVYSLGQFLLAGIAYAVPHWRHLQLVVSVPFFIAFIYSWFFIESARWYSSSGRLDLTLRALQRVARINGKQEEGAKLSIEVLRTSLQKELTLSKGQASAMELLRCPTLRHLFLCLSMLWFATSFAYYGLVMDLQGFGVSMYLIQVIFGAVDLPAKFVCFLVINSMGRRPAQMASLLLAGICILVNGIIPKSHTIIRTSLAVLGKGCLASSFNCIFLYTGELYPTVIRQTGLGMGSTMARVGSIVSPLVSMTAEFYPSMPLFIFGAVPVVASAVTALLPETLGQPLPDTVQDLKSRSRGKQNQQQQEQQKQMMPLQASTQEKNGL
Protocol: (§1) Briefly, HEK-293 cells were grown, at 37°C and 5% CO2, in Dulbecco’s modified Eagle’s medium, which was fortified with 10% fetal bovine serum, 1% minimal essential medium nonessential amino acids, and 1% antibiotic-antimycotic solution. A day before transfection, cells were seeded onto 24-well poly-D-lysine-coated plates at a density of 2 × 10^5 cells per well. After incubation at 37°C and 5% CO2 for 24 h, the expression plasmid and the empty vector were introduced separately into the HEK293 cells with Lipofectamine 2000 transfection reagent (Invitrogen, Carlsbad, CA, United States), according to the manufacturer’s protocol to yield transporter-expressing cells and mock cells, respectively.
(§2) Transport studies were performed 48 h after the transfection. […] Differential uptake between the transfected cells and mock cells was defined as net transport ratio (TransportTC/TransportMC ratio), where TransportTC and TransportMC are the transport rates of a test Danshen compound into transfected and mock cells, respectively. […] The determination was performed under linear uptake conditions by incubation for 5 min. Table 1 summarizes the final concentrations of the test Danshen compounds for different transporters. All the incubation samples were analyzed by liquid chromatography/mass spectrometry.
(§3) GraFit software (version 5.0; Erithacus Software Ltd, Surrey, United Kingdom) was used to determine the K m and V max values by nonlinear regression analysis of initial transport rates as a function of substrate concentration.

[2] = target: T2, rat Oat3 (Rattus norvegicus, UniProt Q9R1U7); assay: Cellular transport assay, HEK-293 cells expressing rat Oat3; conditions: for TransportTC/TransportMC ratio (net transport ratio): 10 min; for K m: rat renal basolateral uptake Oat3, 5 min incubation, concentrations in Table 1
T2 sequence (Q9R1U7 1-536): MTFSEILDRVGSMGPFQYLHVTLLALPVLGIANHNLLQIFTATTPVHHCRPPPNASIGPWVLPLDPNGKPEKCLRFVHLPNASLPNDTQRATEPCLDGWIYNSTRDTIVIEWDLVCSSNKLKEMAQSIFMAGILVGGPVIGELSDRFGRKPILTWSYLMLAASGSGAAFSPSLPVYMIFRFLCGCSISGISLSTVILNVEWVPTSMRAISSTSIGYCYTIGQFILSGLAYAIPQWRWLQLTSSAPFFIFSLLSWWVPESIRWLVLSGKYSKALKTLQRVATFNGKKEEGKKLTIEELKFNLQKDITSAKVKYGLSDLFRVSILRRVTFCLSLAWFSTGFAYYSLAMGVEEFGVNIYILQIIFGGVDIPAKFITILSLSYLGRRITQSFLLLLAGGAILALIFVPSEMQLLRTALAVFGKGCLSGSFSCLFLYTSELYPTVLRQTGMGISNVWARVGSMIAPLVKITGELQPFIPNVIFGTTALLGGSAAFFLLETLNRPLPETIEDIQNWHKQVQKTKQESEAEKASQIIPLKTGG
Protocol: as §1, §2, §3

[3] = target: T3, human OAT2 (Homo sapiens, UniProt Q9Y694); assay: Cellular transport assay, HEK-293 cells expressing human OAT2; conditions: for TransportTC/TransportMC ratio (net transport ratio): 10 min; for K m: human hepatic sinusoidal uptake OAT2 (also renal basolateral), 5 min incubation, concentrations in Table 1
T3 sequence (Q9Y694 1-546 isoform Q9Y694-2): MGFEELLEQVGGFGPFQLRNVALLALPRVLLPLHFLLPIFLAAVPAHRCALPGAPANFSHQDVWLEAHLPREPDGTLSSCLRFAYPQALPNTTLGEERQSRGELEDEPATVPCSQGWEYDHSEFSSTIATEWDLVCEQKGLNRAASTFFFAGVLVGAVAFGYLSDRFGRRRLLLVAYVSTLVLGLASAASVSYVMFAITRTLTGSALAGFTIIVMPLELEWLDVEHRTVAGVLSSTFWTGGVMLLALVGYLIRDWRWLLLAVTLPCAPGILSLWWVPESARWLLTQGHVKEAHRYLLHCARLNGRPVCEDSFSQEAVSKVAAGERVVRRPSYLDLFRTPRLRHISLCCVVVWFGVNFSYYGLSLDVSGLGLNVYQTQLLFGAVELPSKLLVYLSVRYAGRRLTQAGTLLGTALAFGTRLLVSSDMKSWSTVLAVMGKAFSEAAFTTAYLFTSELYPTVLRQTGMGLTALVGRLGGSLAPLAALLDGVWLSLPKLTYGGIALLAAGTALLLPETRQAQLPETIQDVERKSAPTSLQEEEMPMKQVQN
Protocol: as §1, §2, §3

[4] = target: T4, human OAT3 (Homo sapiens, UniProt Q8TCC7); assay: Cellular transport assay, HEK-293 cells expressing human OAT3; conditions: for TransportTC/TransportMC ratio (net transport ratio): 10 min
T4 sequence (Q8TCC7 1-542): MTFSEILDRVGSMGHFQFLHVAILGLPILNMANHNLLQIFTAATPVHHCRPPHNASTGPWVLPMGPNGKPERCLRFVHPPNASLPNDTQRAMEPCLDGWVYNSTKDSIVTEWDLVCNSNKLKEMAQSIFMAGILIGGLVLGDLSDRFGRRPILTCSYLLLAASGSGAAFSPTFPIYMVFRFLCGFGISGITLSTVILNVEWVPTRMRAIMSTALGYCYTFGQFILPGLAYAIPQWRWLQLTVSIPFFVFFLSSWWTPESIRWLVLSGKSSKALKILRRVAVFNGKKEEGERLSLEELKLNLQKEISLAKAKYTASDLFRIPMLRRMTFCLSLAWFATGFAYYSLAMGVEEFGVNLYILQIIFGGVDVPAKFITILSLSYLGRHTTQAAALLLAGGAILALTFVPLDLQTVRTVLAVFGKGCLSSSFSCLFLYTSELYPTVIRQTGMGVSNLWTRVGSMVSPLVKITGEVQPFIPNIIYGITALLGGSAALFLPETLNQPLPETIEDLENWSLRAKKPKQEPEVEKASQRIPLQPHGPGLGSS
Protocol: as §1, §2, §3

[5] = Danshen phenolic acid at 100 μM final concentration, rat Oat1-transfected vs mock cells
[6] = Danshen phenolic acid at 100 μM final concentration, rat Oat3-transfected vs mock cells
[7] = Danshen phenolic acid at 100 μM final concentration, human OAT2-transfected vs mock cells
[8] = Danshen phenolic acid at 100 μM final concentration, human OAT3-transfected vs mock cells

| Compound | TransportTC/TransportMC ratio (net transport ratio) [1, 5] | TransportTC/TransportMC ratio (net transport ratio) [2, 6] | TransportTC/TransportMC ratio (net transport ratio) [3, 7] | TransportTC/TransportMC ratio (net transport ratio) [4, 8] | K m [1] [µM] | K m [2] | substrate of human OAT2 [3] | K m [3] | substrate of rat Oat3 [2] | other results |
| --- | --- | --- | --- | --- | --- | --- | --- | --- | --- | --- |
| O=C(/C=C/c1ccc(O)c2c1[C@H](C(=O)O)[C@@H](c1ccc(O)c(O)c1)O2)O[C@H](Cc1ccc(O)c(O)c1)C(=O)O [Lithospermic acid, lithospermic acid] | 1.36 ± 0.35 | 0.94 ± 0.23 | 1.51 ± 0.27 | 0.96 ± 0.15 | – | – | – | – | – | – |
| O=C(O)c1ccc(O)c(O)c1 [Protocatechuic acid, protocatechuic acid] | 104 ± 20 | 16.1 ± 2.8 | 417 ± 23 | 1.12 ± 0.25 | 110 ± 19 | 117 ± 27 µM | substrates | 185 ± 24 µM | – | microsomal CLint ([1]; rat): 4.07 µL/min/mg; microsomal CLint ([2]; rat): 0.57 µL/min/mg; microsomal CLint ([3]; human): 20.7 µL/min/mg |
| O=C(/C=C/c1ccc(O)c(O)c1)O[C@H](Cc1ccc(O)c(O)c1)C(=O)O [Rosmarinic acid, rosmarinic acid] | – | – | – | – | 59.2 ± 4.7 | 24.0 ± 4.2 µM | substrates | 48.6 ± 4.2 µM | substrates | substrate of rat Oat1 [1]: substrates; TransportTC/TransportMC ratio (net transport ratio) ([1]; rat, 100 μM): 150 ± 46; microsomal CLint ([1]; rat, other cell line): 3.47 µL/min/mg; TransportTC/TransportMC ratio (net transport ratio) ([2]; rat, 100 μM): 4.45 ± 1.12; microsomal CLint ([2]; rat, other cell line): 0.15 µL/min/mg; TransportTC/TransportMC ratio (net transport ratio) ([3]; human, 100 μM): 716 ± 86; microsomal CLint ([3]; human, other cell line): 19.1 µL/min/mg; TransportTC/TransportMC ratio (net transport ratio) ([4]; human, 100 μM): 1.56 ± 0.36 |
| O=C(/C=C/c1ccc(O)c(O)c1/C=C/c1ccc(O)c(O)c1)O[C@H](Cc1ccc(O)c(O)c1)C(=O)O [Salvianolic acid A, salvianolic acid A] | – | – | – | – | – | – | not a substrate | – | not substrates | substrate of rat Oat1 [1]: not substrates; TransportTC/TransportMC ratio (net transport ratio) ([1]; rat, 100 μM): 1.13 ± 0.64; TransportTC/TransportMC ratio (net transport ratio) ([2]; rat, 100 μM): 1.09 ± 0.35; TransportTC/TransportMC ratio (net transport ratio) ([3]; human, 100 μM): 2.25 ± 0.47; TransportTC/TransportMC ratio (net transport ratio) ([4]; human, 100 μM): 2.12 ± 0.13 |
| O=C(O)Cc1c(/C=C/C(=O)O[C@H](Cc2ccc(O)c(O)c2)C(=O)O)ccc(O)c1O [Salvianolic acid D, salvianolic acid D] | 11.5 ± 2.9 | 1.41 ± 0.36 | 314 ± 44 | 1.12 ± 0.56 | 24.4 ± 3.3 | – | substrates | 111 ± 13 µM | not of rat Oat3 | microsomal CLint ([1]; rat): 4.72 µL/min/mg; microsomal CLint ([3]; human): 24.3 µL/min/mg |
| O=C(O)C(O)Cc1ccc(O)c(O)c1 (centres unmarked) [Tanshinol, tanshinol] | – | – | – | – | 154 ± 13 | 3,760 ± 907 μM | – | 1,228 ± 160 μM | – | microsomal CLint ([1]; rat, other cell line): 4.13 µL/min/mg; microsomal CLint ([2]; rat, other cell line): 0.07 µL/min/mg; K m ([4]; human renal basolateral uptake OAT3, 5 min incubation, concentrations in Table 1): 1,565 ± 127 μM; microsomal CLint ([4]; human, other cell line): 0.11 µL/min/mg |
| salvianolic acid B | 1.56 ± 0.67 | 1.12 ± 0.41 | 1.04 ± 0.09 | 1.03 ± 0.24 | – | – | – | – | – | – |
